# Results as given in ChEMBL document CHEMBL3045652, “Biorational glycol diesters as dietary toxins versus bioefficacy of sucrose octanoate against lepidopteran larvae” (Ind Crops Prod, 2012).
# Columns and labels:
# [1] = test system: Helicoverpa armigera; experiment: Insecticidal activity against second-instar larval stage of Helicoverpa armigera fed with artificial diet containing compound assessed as mortality after 7 days; format: functional; conditions: 168 h
# [2] = test system: Spodoptera litura; experiment: Antifeedant activity against third-instar larval stage of Spodoptera litura fed with artificial diet containing compound assessed as efficiency index of ingested food at 5.9 mg/ml after 3 days (reference value: 64.5%); format: functional
# [3] = test system: Helicoverpa armigera; experiment: Antifeedant activity against third-instar larval stage of Helicoverpa armigera fed with artificial diet containing compound assessed as relative consumption rate at 8.21 mg/ml after 3 days (reference value: 1.88 +/- 0.14 mg/mg/day); format: functional
# [4] = test system: Spodoptera litura; experiment: Insecticidal activity against second-instar larval stage of Spodoptera litura fed with artificial diet containing compound assessed as growth inhibition after 7 days; format: functional, organism-based; conditions: for EC50: 168 h
# [5] = test system: Helicoverpa armigera; experiment: Antifeedant activity against third-instar larval stage of Helicoverpa armigera fed with artificial diet containing compound assessed as efficiency index of ingested food at 8.21 mg/ml after 3 days (reference value: 52%); format: functional
# [6] = test system: Spodoptera litura; experiment: Antifeedant activity against third-instar larval stage of Spodoptera litura fed with artificial diet containing compound assessed as relative growth rate at 5.9 mg/ml after 3 days (reference value: 1.37 +/- 0.12 mg/mg/day); format: functional
# [7] = test system: Spodoptera litura; experiment: Antifeedant activity against third-instar larval stage of Spodoptera litura fed with artificial diet containing compound assessed as relative consumption rate at 5.9 mg/ml after 3 days (reference value: 2.13 +/- 0.18 mg/mg/day); format: functional
# [8] = test system: Spodoptera litura; experiment: Insecticidal activity against second-instar larval stage of Spodoptera litura fed with artificial diet containing compound assessed as mortality after 7 days; format: functional; conditions: 168 h
# [9] = test system: Helicoverpa armigera; experiment: Antifeedant activity against third-instar larval stage of Helicoverpa armigera fed with artificial diet containing compound assessed as relative growth rate at 8.21 mg/ml after 3 days (reference value: 0.97 +/- 0.13 mg/mg/day); format: functional
# [10] = test system: Helicoverpa armigera; experiment: Insecticidal activity against second-instar larval stage of Helicoverpa armigera fed with artificial diet containing compound assessed as growth inhibition after 7 days; format: functional, organism-based; conditions: for EC50: 168 h
# [11] = test system: Spodoptera litura; experiment: Antifeedant activity against third-instar larval stage of Spodoptera litura fed with artificial diet containing compound assessed as relative consumption rate at 5.6 mg/ml after 3 days (reference value: 2.13 +/- 0.18 mg/mg/day); format: functional
# [12] = test system: Helicoverpa armigera; experiment: Antifeedant activity against third-instar larval stage of Helicoverpa armigera fed with artificial diet containing compound assessed as relative growth rate at 7.38 mg/ml after 3 days (reference value: 0.97 +/- 0.13 mg/mg/day); format: functional
# [13] = test system: Helicoverpa armigera; experiment: Antifeedant activity against third-instar larval stage of Helicoverpa armigera fed with artificial diet containing compound assessed as efficiency index of ingested food at 7.38 mg/ml after 3 days (reference value: 52%); format: functional
# [14] = test system: Spodoptera litura; experiment: Antifeedant activity against third-instar larval stage of Spodoptera litura fed with artificial diet containing compound assessed as relative growth rate at 5.6 mg/ml after 3 days (reference value: 1.37 +/- 0.12 mg/mg/day); format: functional
# [15] = test system: Helicoverpa armigera; experiment: Antifeedant activity against third-instar larval stage of Helicoverpa armigera fed with artificial diet containing compound assessed as relative consumption rate at 7.38 mg/ml after 3 days (reference value: 1.88 +/- 0.14 mg/mg/day); format: functional
# [16] = test system: Spodoptera litura; experiment: Antifeedant activity against third-instar larval stage of Spodoptera litura fed with artificial diet containing compound assessed as efficiency index of ingested food at 5.6 mg/ml after 3 days (reference value: 64.5%); format: functional
# [17] = test system: Helicoverpa armigera; experiment: Antifeedant activity against third-instar larval stage of Helicoverpa armigera fed with artificial diet containing compound assessed as relative growth rate at 7.15 mg/ml after 3 days (reference value: 0.97 +/- 0.13 mg/mg/day); format: functional
# [18] = test system: Spodoptera litura; experiment: Antifeedant activity against third-instar larval stage of Spodoptera litura fed with artificial diet containing compound assessed as relative consumption rate at 6.25 mg/ml after 3 days (reference value: 2.13 +/- 0.18 mg/mg/day); format: functional
# [19] = test system: Spodoptera litura; experiment: Antifeedant activity against third-instar larval stage of Spodoptera litura fed with artificial diet containing compound assessed as efficiency index of ingested food at 6.25 mg/ml after 3 days (reference value: 64.5%); format: functional
# [20] = test system: Spodoptera litura; experiment: Antifeedant activity against third-instar larval stage of Spodoptera litura fed with artificial diet containing compound assessed as relative growth rate at 6.25 mg/ml after 3 days (reference value: 1.37 +/- 0.12 mg/mg/day); format: functional
# [21] = test system: Helicoverpa armigera; experiment: Antifeedant activity against third-instar larval stage of Helicoverpa armigera fed with artificial diet containing compound assessed as relative consumption rate at 7.15 mg/ml after 3 days (reference value: 1.88 +/- 0.14 mg/mg/day); format: functional
# [22] = test system: Helicoverpa armigera; experiment: Antifeedant activity against third-instar larval stage of Helicoverpa armigera fed with artificial diet containing compound assessed as efficiency index of ingested food at 7.15 mg/ml after 3 days (reference value: 52%); format: functional
SMILES,LC50 [1] [µg/mL],growth inhibition (GI) [4],EC50 [4] [µg/mL],LC50 [8] [µg/mL],growth inhibition (GI) [10],EC50 [10] [µg/mL],other results
CCCC(=O)OCC(C)OC(=O)CCC (stereo unspecified),2000,Dose-dependent effect,4210,2000,Dose-dependent effect,5670,ECI [2]: 12%; Activity [3]: 1.77 mg/mg/day; ECI [5]: 38.2%; Activity [6]: 1.04 mg/mg/day; Activity [7]: 1.98 mg/mg/day; Activity [9]: 0.67 mg/mg/day
CC(COC(=O)C(C)C)OC(=O)C(C)C (stereo unspecified),2000,Dose-dependent effect,5210,2000,Dose-dependent effect,7340,Activity [11]: 2.12 mg/mg/day; Activity [12]: 0.58 mg/mg/day; ECI [13]: 30.4%; Activity [14]: 1.09 mg/mg/day; Activity [15]: 1.91 mg/mg/day; ECI [16]: 13%
CCCCCCCC(=O)OCC(C)OC(=O)CCCCCCC (stereo unspecified),2000,Dose-dependent effect,3820,2000,Dose-dependent effect,4380,Activity [17]: 0.7 mg/mg/day; Activity [18]: 2.21 mg/mg/day; ECI [19]: 18%; Activity [20]: 0.88 mg/mg/day; Activity [21]: 1.86 mg/mg/day; ECI [22]: 37.9%
